In ChEMBL document CHEMBL2417387, “Development of a pharmacophore model for the catecholamine release-inhibitory peptide catestatin: virtual screening and functional testing identify novel small molecule therapeutics of hypertension” (Bioorg Med Chem, 2013) one finds IC50, Activity and inhibition data, which are given here for 21 compounds.

A short description of data set [1]: Inhibition of nicotinic cholinergic receptor in rat PC12 cells assessed as inhibition of nicotine-stimulated [3H]-norepinephrine release after 30 mins by liquid scintillation counting analysis. Type of data set: cell-based. The following applies: PC-12.
Data set [2] relates to Mus musculus. Briefly: Antihypertensive activity in BPH/2J mouse polygenic hypertensive model assessed as reduction in diastolic blood pressure at 5 ug/g, ip up to 60 mins by telemetry. Type of data set: functional, Artery.
In data set [3] the test system is Mus musculus. Put plainly: Toxicity in BPH/2J mouse polygenic hypertensive model assessed as reflex tachycardia at 5 ug/g, ip measured for 24 hrs by telemetry. Type of data set: organism-based. The note with it: in vivo.
Data set [4] concerns PC-12. Briefly: (§1) Inhibition of nicotinic cholinergic receptor in rat PC12 cells assessed as inhibition of nicotine-stimulated 45Ca2+ uptake after 2 mins by liquid scintillation counting analysis. The class given is cell-based.
The nature of data set [5]: as §1. The class given is cell-based. The following applies: PC-12, 2 min.
In data set [6] the test system is Mus musculus. Put plainly: Antihypertensive activity in BPH/2J mouse polygenic hypertensive model assessed as reduction in heart rate at 5 ug/g, ip measured for 24 hrs by telemetry. The class given is functional.
In data set [7] the test system is Mus musculus. Put plainly: Antihypertensive activity in BPH/2J mouse polygenic hypertensive model assessed as reduction in systolic blood pressure at 5 ug/g, ip up to 60 mins by telemetry. The class given is functional, Artery.
The subject of data set [8] is PC-12. Briefly: Inhibition of nicotinic cholinergic receptor-mediated [3H]-norepinephrine release in rat PC12 cells after 30 mins by liquid scintillation counting analysis. Type of data set: cell-based.
Data set [9] concerns PC-12. Briefly: Inhibition of BaCl2-induced potassium channel blockade in rat PC12 cells assessed as inhibition of catecholamine secretion at 5 uM after 30 mins by liquid scintillation counting analysis. Type of data set: functional, cell-based.
The test system of data set [10] is PC-12. Put plainly: Cytotoxicity against rat PC12 cells assessed as cell viability at 5 to 10 uM after 24 hrs by trypan blue exclusion assay relative to control. Type of data set: cell-based. The note with it: pc-12, 24 h.
The subject of data set [11] is PC-12. Put plainly: Inhibition of KCl-induced membrane depolarization in rat PC12 cells assessed as inhibition of catecholamine secretion at 5 uM after 30 mins by liquid scintillation counting analysis. The class given is functional, cell-based.
Data set [12] relates to PC-12. Briefly: Inhibition of ATP-induced P2X receptor activation in rat PC12 cells assessed as inhibition of catecholamine secretion at 5 uM after 30 mins by liquid scintillation counting analysis. The class given is cell-based.
Data set [13] relates to PC-12. Briefly: Noncompetitive inhibition of nicotinic cholinergic receptor in rat PC12 cells assessed as inhibition of 100 to 1000 uM nicotine-induced [3H]-norepinephrine release at 5 uM after 30 mins by liquid scintillation counting analysis. Type of data set: cell-based.
The test system of data set [14] is PC-12. Briefly: Inhibition of ionomycin-mediated catecholamine secretion in rat PC12 cells at 5 uM after 30 mins by liquid scintillation counting analysis. Type of data set: functional, cell-based.

Structures are written as SMILES. pIC50: −log10 of the molar value. Calls of active or inactive are those of the source. The rule behind the calls is not given here. Where only a bound is given, the exact number is not on record here.

Consider `O=C(Nc1cc(C2=NCCN2)cc(C2=NCCN2)c1)Nc1cc(C2=NCCN2)cc(C2=NCCN2)c1`, for which the pIC50 in [1] is < 5.30.

Take `C/C(=N\NC(=N)N)c1cccc(NC(=S)Nc2cccc(/C(C)=N/NC(=N)N)c2)c1`: the Activity in data set [2] was 25 mmHg; in [3], “Non-toxic”; in data set [6] it was 180 bpm; in data set [7], 33 mmHg. Moreover, the inhibition entry in data set [4] is “Dose-dependent effect”. Also, the pIC50 in data set [5] was 7.05; in data set [1], 7.77.

For the compound `C/N=C(\NC)c1ccc(NC(=O)Nc2ccc(C)c(NC(=O)Nc3ccc(/C(=N/C)NC)cc3)c2)cc1`, the inhibition result in data set [4] is “Dose-dependent effect”. In addition, the pIC50 in [5] was 7.00; in data set [1], 7.62.

As for `CCN1CCC(CNc2cc(C)nc(NC(=N)Nc3ccc(Cl)c(Cl)c3)n2)C1` (configuration not stated), in data set [1], the negative-log IC50 (pIC50) is 6.35.

As to `CC1(C)N=C(N)N=C(N)N1c1ccc(CNC(=O)Nc2ccccc2)cc1`, the pIC50 in data set [1] is < 5.30.

Regarding `Nc1ccc(CCCCc2nc(N)nc(N)c2-c2ccc(Cl)c(Cl)c2)cc1`, the negative logarithm of the IC50 (pIC50) in data set [1] was 5.59.

For `CNC(=O)c1ccc(NC(=O)Nc2cccc(C3=NCCN3)c2)cc1NC(=O)Nc1cccc(C2=NCCN2)c1`, the negative-log IC50 (pIC50) in data set [1] is 5.85.

For `C/N=C(\NC)c1ccc(NC(=O)Nc2cccc(NC(=O)Nc3ccc(/C(=N/C)NC)cc3)c2)cc1`, the inhibition entry in data set [4] is “Dose-dependent effect”. Further, the pIC50 was 7.15 in data set [5] and 7.39 in data set [1].

With `CCN1CCC(CNc2cc(C)nc(NC(=N)Nc3cc(Cl)cc(Cl)c3)n2)C1` (configuration not stated), in [1], the pIC50 was 5.72.

Regarding `CNC(=O)c1cc(NC(=O)Nc2cccc(C3=NCCN3)c2)cc(NC(=O)Nc2cccc(C3=NCCN3)c2)c1`, in data set [4], the inhibition entry was “Dose-dependent effect”. In addition, the pIC50 in [5] is 7.00; in [1], 6.00. Moreover, the inhibition result in data set [8], in data set [9], in data set [11], in data set [12] and in [14] was “inactive” throughout. For the same compound, the Activity entry in data set [10] is reported as “Non-toxic”. The inhibition entry in [13] was “Active”.

Take `Nc1nc(N)c2nc(CNc3ccc(C(=O)N[C@@H](CCC(=O)O)C(=O)O)cc3)cnc2n1` [AMINOPTERIN]: the pIC50 in data set [1] is < 5.30.

Regarding `C[N+](C)(C)CC[N+]1(C)Cc2c(Cl)c(Cl)c(Cl)c(Cl)c2C1`, the inhibition entry in data set [13] was “Active”.

As for `Cc1ccnc(NS(=O)(=O)c2ccc(/N=N/c3cc(/N=N/c4ccccc4)c(N)nc3N)cc2)n1`, in [1], the pIC50 is < 5.30.

As to `CCN1CCCC(Nc2cc(C)nc(NC(=N)Nc3ccc(Cl)c(Cl)c3)n2)C1` (configuration not stated), the pIC50 in [1] was 5.96.

Turning to `Nc1nc(N)c(/N=N/c2ccc(S(=O)(=O)Nc3ccccn3)cc2)cc1/N=N/c1ccccc1`, the pIC50 in data set [1] is 5.70.

`CCN/C(=N\c1cccc(C2=NCCN2)c1)c1ccc(/C(=N/c2cccc(C3=NCCN3)c2)NCC)cc1`: in data set [1], the pIC50 was 5.80.

On to `C/N=C(\NC)c1ccc(/N=C(\NC)c2ccc(/C(=N/c3ccc(/C(=N/C)NC)cc3)NC)cc2)cc1`, for which the pIC50 in [1] was 5.77.

Regarding `Nc1nc(N)c(-c2ccc(Cl)cc2)c(CCc2ccc(NC(=O)CBr)cc2)n1`, the pIC50 in data set [1] was 5.82.

Regarding `C/N=C(\N)c1ccc(/N=C(\N)c2ccc(Cl)c(/C(N)=N/c3ccc(C(=N)NC)cc3)c2)cc1`, the negative logarithm of the IC50 (pIC50) in data set [1] is 5.74.

On to `Cc1cc(NC(=O)NCc2ccc(N3C(N)=NC(N)=NC3(C)C)cc2)ccc1S(=O)(=O)F`, for which the pIC50 in data set [1] was 6.06.

For `CCN(CC)CC(O)CNC1=N/C(=N/C(=N)Nc2ccc(Cl)c(Cl)c2)N=C(C)C1` (configuration not stated), the inhibition entry in data set [8], in [9], in [11], in data set [12] and in data set [14] was “inactive” throughout. The Activity result in [10] is listed as “Non-toxic”. Besides, in data set [1], the pIC50 is 6.17. The inhibition entry in data set [13] was “Active”.
